# Columns and labels:
# nine cancer cell lines = assay: MTT cytotoxicity assay, 72 h, ranges over cell line panel; assay type: cell-based; conditions: nine cell lines, read-out: IC50 range across all cell lines tested
# Experimental: (§1) Cells in a subconfluent phase are transferred to 96-well microtitre plates. L1210 cells are plated at a density of 1000 cells/well in 100 μl medium, while all other cell lines are plated at a density of 2000-25000 cells/well. The cells are left for 24 h prior to treatment to ensure exponential growth has been achieved, 24 h after plating (day 0), 100 μl of phosphatase inhibitor is added to each well, control wells received 100 μl of medium only. Drug exposure time is 72 h (day 3). The effect of phosphatase inhibition is tested in triplicate over a concentration range of […]−1×10^−8 M. Growth inhibitory effects are evaluated using the MTT assay and absorbance read at […]. The IC50 is the drug concentration at which cell growth is 50% inhibited based on the difference of optical density on day 0 and day 3 of drug exposure. Cytotoxicity is evaluated using a spectrophotometric assay which determines the percentage of cell growth following exposure of the cells to various concentrations of the phosphatase inhibitors for a period of 72 hours. The subsequent dose response curve is used to calculate IC50 values (the drug concentration at which cell growth is 50% inhibited).
# (§2) Anti-cancer screening of the protein phosphatase inhibitors is assessed using the MTT assay. This assay determines cell viability by the ability of mitochondrial dehydrogenase to produce formazan crystals from 3-(4,5-dimethylthiazol-2-yl)-2,5-diphenyltetrazolium bromide. The viable cell number/well is directly proportional to the production of formazan, which following solubilization, can be measured spectrophotometrically (540 nm). This technique is also used by the National Cancer Institute to screen for new anticancer agents.
# (§3) As described herein a number of cantharidin analogues have been synthesised and tested for their anticancer activity in nine cancer cell lines using the MTT assay after 72 h exposure. These new analogues are shown in FIG. 2 and have been designated MK-1 through to MK-9.
# HL60 cells = assay: Cell cycle analysis, flow cytometry of propidium iodide stained cells; assay type: cell-based, human; conditions: for Cell Cycle Distribution, G1 / Cell Cycle Distribution, G2 + M / Cell Cycle Distribution, S / Cell Cycle Distribution, sub G1 / Cell cycle remark: 12 h
# Experimental: (§4) The cells are fixed in 70% ethanol and stored at −20° C. until analysis is performed (1-2 weeks). After fixing, the cells are pelleted and incubated in PBS containing propidium iodide ([…]) and RNase A (200 mg/ml) for at least 30 min at room temperature. The samples (2×10^4 events) are analysed using a Becton Dickson FACScan, fluorescence is collected in fluorescence detector 2 (FL2), filter 575/30 nm band pass. Cell cycle distribution is assessed using Cell Quest software (Becton Dickson).
# (§5) The ability of the protein phosphatase inhibitors to abrogate the G1 or G2 checkpoint of the cell cycle may be determined by cell cycle analysis using flow cytometry. Briefly, asynchronous cell cultures are harvested 18 h after 6 Gy irradiation and/or 12 h incubation with the protein phosphatase inhibitor. Depending upon the p53 status of the cell line, radiation treatment alone will induce arrest in either G1 and/or G2 phase of the cell cycle.
# (§6) Data shown in Table 2 and FIG. 4 show the cell cycle response of L1210, HL60, HT29 and HCT116 cells to cantharidin and the new cantharidin analogues MK-2 and MK-4 after 12 h exposure. In summary, cantharidin and MK-2 produced a similar response and induced G2 arrest in all four cell lines tested. […] HL60 and HCT116 cells. […] The magnitude of the cell cycle arrest induced by these drugs directly correlated with their cytotoxicity in the respective cell lines. […] The cytotoxicity of the […]
# HCT116 cells = assay: as above; assay type: cell-based, human
# Experimental: as §4, §5, §6
# HT29 cells = assay: as above; assay type: cell-based, human; conditions: for Cell Cycle Distribution, G1 / Cell Cycle Distribution, G2 + M / Cell Cycle Distribution, S / Cell Cycle Distribution, sub G1 / Cell cycle remark: 12 h
# Experimental: as §4, §5, §6
# L1210 cells = assay: MTT cytotoxicity assay, 72 h; assay type: cell-based, murine; conditions: Mus musculus, 72 h; L1210, p53 wt; read-out: IC50 (mean ± SE) after 72 h continuous exposure
# Experimental: as §1, §2, §3
structure (smiles),measurement,setting,value
"C[C@@]12C(=O)OC(=O)[C@]1(C)[C@H]1CC[C@@H]2O1 [Cantharidin, exo.exo-2.3-dimethyl-7-oxobicyclo[2.2.1]heptane-2,3-dicarboxylic acid anhydride]",IC50,nine cancer cell lines,6.1 to 18 µM
same,"Cell Cycle Distribution, G1","HL60 cells; HL60, 1 μM",44.0 percentage of total
same,"Cell Cycle Distribution, G2 + M","HL60 cells; HL60, 1 μM",29.7 percentage of total
same,"Cell Cycle Distribution, S","HL60 cells; HL60, 1 μM",26.1 percentage of total
same,"Cell Cycle Distribution, sub G1","HL60 cells; HL60, 1 μM",1.5 percentage of total
same,"Cell Cycle Distribution, G1","HL60 cells; HL60, 5 μM",41.4 percentage of total
same,"Cell Cycle Distribution, G2 + M","HL60 cells; HL60, 5 μM",30.6 percentage of total
same,"Cell Cycle Distribution, S","HL60 cells; HL60, 5 μM",27.7 percentage of total
same,"Cell Cycle Distribution, sub G1","HL60 cells; HL60, 5 μM",1.7 percentage of total
same,"Cell Cycle Distribution, G1","HL60 cells; HL60, 10 μM",41.8 percentage of total
same,"Cell Cycle Distribution, G2 + M","HL60 cells; HL60, 10 μM",30.4 percentage of total
same,"Cell Cycle Distribution, S","HL60 cells; HL60, 10 μM",27.5 percentage of total
same,"Cell Cycle Distribution, sub G1","HL60 cells; HL60, 10 μM",1.7 percentage of total
same,Cell cycle remark,"HL60 cells; HL60, 10 μM",G2 arrest
same,"Cell Cycle Distribution, G1","HL60 cells; HL60, 50 μM",16.2 percentage of total
same,"Cell Cycle Distribution, G2 + M","HL60 cells; HL60, 50 μM",34.7 percentage of total
same,"Cell Cycle Distribution, S","HL60 cells; HL60, 50 μM",31.6 percentage of total
same,"Cell Cycle Distribution, sub G1","HL60 cells; HL60, 50 μM",19.3 percentage of total
same,Cell cycle remark,"HL60 cells; HL60, 50 μM",Cell Death
same,Cell cycle response,"HL60 cells; HL60, 12 h exposure",G2 arrest
same,"Cell Cycle Distribution, G1","HCT116 cells; HCT116, 1 μM, 12 h",39.9 percentage of total
same,"Cell Cycle Distribution, G2 + M","HCT116 cells; HCT116, 1 μM, 12 h",41.9 percentage of total
same,"Cell Cycle Distribution, S","HCT116 cells; HCT116, 1 μM, 12 h",17.2 percentage of total
same,"Cell Cycle Distribution, sub G1","HCT116 cells; HCT116, 1 μM, 12 h",2.2 percentage of total
same,"Cell Cycle Distribution, G1","HCT116 cells; HCT116, 5 μM, 12 h",39.9 percentage of total
same,"Cell Cycle Distribution, G2 + M","HCT116 cells; HCT116, 5 μM, 12 h",41.8 percentage of total
same,"Cell Cycle Distribution, S","HCT116 cells; HCT116, 5 μM, 12 h",16.8 percentage of total
same,"Cell Cycle Distribution, sub G1","HCT116 cells; HCT116, 5 μM, 12 h",2.9 percentage of total
same,"Cell Cycle Distribution, G1","HCT116 cells; HCT116, 10 μM, 12 h",38.0 percentage of total
same,"Cell Cycle Distribution, G2 + M","HCT116 cells; HCT116, 10 μM, 12 h",42.0 percentage of total
same,"Cell Cycle Distribution, S","HCT116 cells; HCT116, 10 μM, 12 h",14.9 percentage of total
same,"Cell Cycle Distribution, sub G1","HCT116 cells; HCT116, 10 μM, 12 h",6.2 percentage of total
same,"Cell Cycle Distribution, G1","HCT116 cells; HCT116, 50 μM, 12 h",25.1 percentage of total
same,"Cell Cycle Distribution, G2 + M","HCT116 cells; HCT116, 50 μM, 12 h",48.1 percentage of total
same,"Cell Cycle Distribution, S","HCT116 cells; HCT116, 50 μM, 12 h",17.8 percentage of total
same,"Cell Cycle Distribution, sub G1","HCT116 cells; HCT116, 50 μM, 12 h",11.1 percentage of total
same,Cell cycle remark,"HCT116 cells; HCT116, 50 μM, 12 h",G2 arrest
same,Cell cycle response,"HCT116 cells; HCT116, 12 h exposure",G2 arrest
same,"Cell Cycle Distribution, G1","HT29 cells; HT29, 1 μM",46.2 percentage of total
same,"Cell Cycle Distribution, G2 + M","HT29 cells; HT29, 1 μM",37.4 percentage of total
same,"Cell Cycle Distribution, S","HT29 cells; HT29, 1 μM",7.8 percentage of total
same,"Cell Cycle Distribution, sub G1","HT29 cells; HT29, 1 μM",9.0 percentage of total
same,"Cell Cycle Distribution, G1","HT29 cells; HT29, 5 μM",47.4 percentage of total
same,"Cell Cycle Distribution, G2 + M","HT29 cells; HT29, 5 μM",39.8 percentage of total
same,"Cell Cycle Distribution, S","HT29 cells; HT29, 5 μM",9.3 percentage of total
same,"Cell Cycle Distribution, sub G1","HT29 cells; HT29, 5 μM",4.0 percentage of total
same,"Cell Cycle Distribution, G1","HT29 cells; HT29, 10 μM",42.7 percentage of total
same,"Cell Cycle Distribution, G2 + M","HT29 cells; HT29, 10 μM",40.3 percentage of total
same,"Cell Cycle Distribution, S","HT29 cells; HT29, 10 μM",14.6 percentage of total
same,"Cell Cycle Distribution, sub G1","HT29 cells; HT29, 10 μM",2.8 percentage of total
same,Cell cycle remark,"HT29 cells; HT29, 10 μM",G2 arrest
same,"Cell Cycle Distribution, G1","HT29 cells; HT29, 50 μM",46.0 percentage of total
same,"Cell Cycle Distribution, G2 + M","HT29 cells; HT29, 50 μM",26.0 percentage of total
same,"Cell Cycle Distribution, S","HT29 cells; HT29, 50 μM",14.7 percentage of total
same,"Cell Cycle Distribution, sub G1","HT29 cells; HT29, 50 μM",15.1 percentage of total
same,Cell cycle remark,"HT29 cells; HT29, 50 μM",Cell Death
same,Cell cycle response,"HT29 cells; HT29, 12 h exposure",G2 arrest
same,IC50,L1210 cells,18 µM

# Source: US20060030616A1, “Anhydride modified cantharidin analogues useful in the treatment of cancer” (priority 1998, published 2006)
